# Source: patent US20180098997A1, “PHARMACEUTICAL DOSES FOR A BROMODOMAIN AND EXTRATERMINAL PROTEIN (BET) INHIBITOR” (Oncoethix GmbH, priority 2015, published 2018)
# Where two headings read alike, the source gives them in different places.
# What was measured:
# [1] = Phase I dose escalation population pharmacokinetics in patients with hematologic malignancies (plasma UPLC-MS/MS, Monolix PPK model); assay type: in vivo, human; settings: for CL [mean +/- SD] / V [mean +/- SD]: apparent (F set to 1); for Cmin [mean +/- SD]: predose at Day 8; for AUC(0-t): read-out: AUC0-24 hr [mean +/- SD]; for Cmax: read-out: Cmax [mean +/- SD]
# Experimental: Solid dispersions were prepared using the compound of Formula (1) and hydroxylpropylmethylcellulose acetate succinate (HPMCAS) at both 25% and 50% of compound loading. Solid dispersions were prepared by a solvent evaporation method, using spray-drying followed by secondary drying in a low-temperature convection oven. Dispersions containing 10 mg, 20 mg, 40 mg, 80 mg, 120 mg and 160 mg, of the compound, were prepared into capsules and administered to patients Pharmacokinetics (PK) of the compound of Formula (1) as single agent were characterized in patients with hematologic malignancies, including a population pharmacokinetic modeling. A multicenter, dose escalation study in cohorts of 3 to 6 patients with acute leukemia or other hematologic malignancies was performed with a dose escalation step followed by expansion cohorts at the recommended dose. Patients received oral compound of Formula (1) from 10 to 160 mg according to different schedules. Schedules included once a day dosing with 21-day cycles, acute leukemia (AL); 14 days on/7 days off, hematologic malignancies (OHM). Continuous PK blood samples from 7 time points over 24 hours post-administration were collected on day 1 of cycle 1 for the first 3 patients per DL, and 5 time points over 8 hours post-administration for other patients at this DL. Residual sampling before administration on days 8, 15 and 22 was performed in all patients. Compound plasma concentrations were measured using validated ultra-performance liquid chromatography with tandem mass spectrometry detection with a concentration range 1-250 ng/mL, with a small plasma volume for analysis (50 μL). Analyses and population PK (PPK) modeling were performed with the nonlinear mixed effect modeling software program Monolix version 4.3. The following parameters were calculated: absorption constant (Ka); apparent distribution volume (V/F); apparent clearance (CL/F) and lean body mass (LBM; calculated considering patient sex, weight and height). Parameters were estimated by computing the maximum likelihood estimator without linearization using the stochastic approximation expectation maximization (SAEM) algorithm combined with a Markov Chain Monte Carlo (MCMC) procedure. The number of MCMC chains was fixed at 10 for all estimations. A constant error model was used to describe residual and Between-Subject Variability (BSV, η) were ascribed to an exponential model. In the absence of intravenous data, the initial bioavailability (F) was set to 1, meaning that clearance (CL) and volume of distribution (V) should be interpreted as the apparent clearance (CL/F) and apparent volume of distribution (V/F), respectively. Eighty-five patients enrolled and treated and randomized to six dose levels (10, 20, 40, 80, 120 and 160 mg) once-a-day and 40 mg twice-a-day. Among them, 81 patients with 630 plasma concentrations (607+23 BLQ) were evaluable for PK assessment. A 1-compartment open model adequately described the total compound concentration-time curve. […] The absorption phase was linear and Tmax was between 1 and 4 h. […] In the PPK study, the best descriptive model was obtained when LBM was considered in the analysis. A correlation between CL/F and V/F was also observed for compound. A total of 81 patients (52 male, 29 female) were evaluable for PK (40 AL patients, 41 OHM patients), with a total of […] available for analysis.
# [2] = Dose limiting toxicity in patients with acute leukemia or hematologic malignancies; assay type: in vivo, human
# Excerpt: Dose-limiting toxicity corresponds to side-effect toxicity such that the side-effects are severe enough to impose restrictions on, or to prevent administration of, the dose. Clinically significant toxicity includes but is not limited to intolerable levels in a patient of thrombocytopenia, neutropenia, fatigue, diarrhea, anemia, mucositis, and other side effects known to be associated with elevated levels of bromodomain and extraterminal protein inhibitors.
# (§1) Doses of the compound of Formula (1) were administered to patients having leukemia, hematologic malignancies, diffuse large B-cell lymphoma, other lymphomas or multiple myeloma, and dose limiting toxicity and objective responses were observed.
# Compound of Formula (1) dose-limiting toxicity was evaluated in patients with acute leukemia and hematologic malignancies.
# [3] = test system: leukemia, diffuse large B-cell lymphoma, other lymphomas or multiple myeloma; assay: Objective responses in patients; assay type: in vivo, human; settings: patients receiving 10 or 20 mg per day
# Excerpt: With regard to the compound of Formula (1), an effective dose is a dose that inhibits a protein in the bromodomain and extraterminal protein family to a sufficient degree that a desired objective response is observed. An objective response may be a complete response (all detectable tumor or blast cell has disappeared), a partial response (roughly corresponds to at least a 50% decrease in the total tumor volume or blast cell amount but with evidence of some residual disease still remaining), or a minor response (roughly means a small amount of tumor shrinkage or blast cell reduction). Thus, an objective response can include a response where blast cell amount reduction is observed, or where tumor shrinkage is observed in the patient.
# as §1
# Compound of Formula (1) once-a-day doses of 10, 20, 40, 80, 120 and 160 mg and twice-a-day doses of 40 mg were administered to patients with leukemia, diffuse large B-cell lymphoma, other lymphomas or multiple myeloma. In this study, objective responses were not observed in patients receiving 10 or 20 mg per day.
# [4] = test system: BET (bromodomains and extraterminal) proteins, which include BRD2, BRD3, and BRD4; settings: U.S. 2010/0286127 A1; cited from earlier work
# [5] = 10 mg QD oral, n = 8, derived from EBE
# [6] = 20 mg QD oral, n = 6, derived from EBE
# [7] = 40 mg BID oral, n = 13, derived from EBE
# [8] = 40 mg QD oral, n = 8, derived from EBE
# [9] = 80 mg QD oral, n = 11, derived from EBE
# [10] = 120 mg QD oral, n = 30, derived from EBE
# [11] = 160 mg QD oral, n = 5, derived from EBE
# [12] = PPK structural model, 1-compartment open model, 81 patients, all dose levels
structure (smiles),measurement,setting,value
"Cc1sc2c(c1C)C(c1ccc(Cl)cc1)=N[C@@H](CC(=O)Nc1ccc(O)cc1)c1nnc(C)n1-2 [Compound of Formula (1), (S)-2-(4-(4-chlorophenyl)-2,3,9-trimethyl-6H-thieno[3,2-f][1,2,4]triazolo[4,3-a][1,4]diazepin-6-yl)-N-(4-hydroxyphenyl)acetamide]",CL [mean +/- SD],[1]; [5],8.53 L/h
same,V [mean +/- SD],[1]; [5],72.1 L
same,Cmin [mean +/- SD],"[1]; 10 mg QD oral, n = 8, observed values",22.5 ng/mL
same,CL [mean +/- SD],[1]; [6],7.06 L/h
same,V [mean +/- SD],[1]; [6],57.6 L
same,Cmin [mean +/- SD],"[1]; 20 mg QD oral, n = 6, observed values",50.5 ng/mL
same,CL [mean +/- SD],[1]; [7],6.57 L/h
same,V [mean +/- SD],[1]; [7],57.46 L
same,Cmin [mean +/- SD],"[1]; 40 mg BID oral, n = 13, observed values",351.16 ng/mL
same,CL [mean +/- SD],[1]; [8],7.66 L/h
same,V [mean +/- SD],[1]; [8],58.65 L
same,Cmin [mean +/- SD],"[1]; 40 mg QD oral, n = 8, observed values",47.7 ng/mL
same,CL [mean +/- SD],[1]; [9],7.83 L/h
same,V [mean +/- SD],[1]; [9],71.14 L
same,Cmin [mean +/- SD],"[1]; 80 mg QD oral, n = 11, observed values",113.7 ng/mL
same,CL [mean +/- SD],[1]; [10],7.81 L/h
same,V [mean +/- SD],[1]; [10],63.32 L
same,Cmin [mean +/- SD],"[1]; 120 mg QD oral, n = 30, observed values",325.4 ng/mL
same,CL [mean +/- SD],[1]; [11],12.10 L/h
same,V [mean +/- SD],[1]; [11],96.66 L
same,Cmin [mean +/- SD],"[1]; 160 mg QD oral, n = 5, observed values",215.0 ng/mL
same,absorption constant (Ka),[1]; [12],0.74 h⁻¹
same,apparent clearance (CL/F),[1]; [12],8.45 L/h
same,apparent distribution volume (V/F),[1]; [12],71.7 L
same,half-life,"[1]; both sexes, human, plasma, oral, all patients, read-out: Mean elimination half-life (converted)",5.8 h
same,AUC(0-t),"[1]; both sexes, human, plasma, po, 10 mg, 10 mg QD oral, n = 8, derived from EBE",1190 ng·h/mL
same,AUC(0-t),"[1]; both sexes, human, plasma, po, 20 mg, 20 mg QD oral, n = 6, derived from EBE",2930 ng·h/mL
same,AUC(0-t),"[1]; both sexes, human, plasma, po, 40 mg, 40 mg BID oral, n = 13, values doubled to mimic 80 mg (2 × 40 mg)",13100 ng·h/mL
same,AUC(0-t),"[1]; both sexes, human, plasma, po, 40 mg, 40 mg QD oral, n = 8, derived from EBE",5500 ng·h/mL
same,AUC(0-t),"[1]; both sexes, human, plasma, po, 80 mg, 80 mg QD oral, n = 11, derived from EBE",12500 ng·h/mL
same,AUC(0-t),"[1]; both sexes, human, plasma, po, 120 mg, 120 mg QD oral, n = 30, derived from EBE",17200 ng·h/mL
same,AUC(0-t),"[1]; both sexes, human, plasma, po, 160 mg, 160 mg QD oral, n = 5, derived from EBE",13900 ng·h/mL
same,Cmax,"[1]; both sexes, human, plasma, 40 mg BID oral, n = 13, derived from EBE",550 ng/mL
same,Cmax,"[1]; both sexes, human, plasma, 80 mg QD oral, n = 11, derived from EBE",1150 ng/mL
same,Cmax,"[1]; both sexes, human, plasma, 120 mg QD oral, n = 30, derived from EBE",1470 ng/mL
same,Cmax,"[1]; both sexes, human, plasma, 160 mg QD oral, n = 5, derived from EBE",1290 ng/mL
same,Tmax,"[1]; both sexes, human, plasma, oral, all dose levels",1 to 4 h
same,half-life,"[1]; human, plasma, po, 10 mg, 10 mg QD oral, n = 8, derived from EBE, read-out: T1/2 [mean +/- SD] (converted)",5.84 h
same,half-life,"[1]; human, plasma, po, 20 mg, 20 mg QD oral, n = 6, derived from EBE, read-out: T1/2 [mean +/- SD] (converted)",5.63 h
same,half-life,"[1]; human, plasma, po, 40 mg, 40 mg BID oral, n = 13, derived from EBE, read-out: T1/2 [mean +/- SD] (converted)",6.22 h
same,half-life,"[1]; human, plasma, po, 40 mg, 40 mg QD oral, n = 8, derived from EBE, read-out: T1/2 [mean +/- SD] (converted)",5.33 h
same,half-life,"[1]; human, plasma, po, 80 mg, 80 mg QD oral, n = 11, derived from EBE, read-out: T1/2 [mean +/- SD] (converted)",5.51 h
same,half-life,"[1]; human, plasma, po, 120 mg, 120 mg QD oral, n = 30, derived from EBE, read-out: T1/2 [mean +/- SD] (converted)",5.91 h
same,half-life,"[1]; human, plasma, po, 160 mg, 160 mg QD oral, n = 5, derived from EBE, read-out: T1/2 [mean +/- SD] (converted)",5.48 h
same,Cmax,"[1]; human, plasma, 10 mg QD oral, n = 8, derived from EBE",131 ng/mL
same,Cmax,"[1]; human, plasma, 20 mg QD oral, n = 6, derived from EBE",275 ng/mL
same,Cmax,"[1]; human, plasma, 40 mg QD oral, n = 8, derived from EBE",627 ng/mL
same,"Dose Limiting Toxicity, observed toxicity","[2]; Acute Leukemia, 20 mg QD, 6 patients",0 patients
same,"Dose Limiting Toxicity, observed toxicity","[2]; Acute Leukemia, 40 mg BID, 6 patients",0 patients
same,"Dose Limiting Toxicity, observed toxicity","[2]; Acute Leukemia, 40 mg QD, 4 patients",0 patients
same,"Dose Limiting Toxicity, observed toxicity","[2]; Acute Leukemia, 80 mg QD, 4 patients",0 patients
same,"Dose Limiting Toxicity, observed toxicity","[2]; Acute Leukemia, 120 mg QD, 11 patients",0 patients
same,"Dose Limiting Toxicity, observed toxicity","[2]; Acute Leukemia, 160 mg QD, 5 patients (diarrhea and fatigue/anorexia)",2 patients
same,"Dose Limiting Toxicity, observed toxicity","[2]; Older Adult Hematologic Malignancies, 20 mg QD, 6 patients",0 patients
same,"Dose Limiting Toxicity, observed toxicity","[2]; Older Adult Hematologic Malignancies, 40 mg BID, 6 patients (thrombocytopenia)",5 patients
same,"Dose Limiting Toxicity, observed toxicity","[2]; Older Adult Hematologic Malignancies, 40 mg QD, 3 patients",0 patients
same,"Dose Limiting Toxicity, observed toxicity","[2]; Older Adult Hematologic Malignancies, 80 mg QD, 7 patients (thrombocytopenia)",2 patients
same,"Dose Limiting Toxicity, observed toxicity","[2]; Older Adult Hematologic Malignancies, 120 mg QD, 18 patients (thrombocytopenia, hypo Na, neutropenia, fatigue, diarrhea, mucositis)",10 patients
same,objective responses,[3],not observed
same,inhibition of binding of acetylated histone H4 to BET proteins,[4],inhibit the binding
